Tests used:
[1] = Viscosity measurements (Brookfield Synchrolectric viscometer model LVF); type: physicochemical; details: 1% weight solution in distilled water, pH 7 and 25° C.
Method: The values in centi-poise (mPa·s, m=milli) were calculated as per the specifications set out by the instrument manufacturer.
The viscosity of the compositions described in Example 5, were also similarly measured, as well as 1% wt. solutions of pure BAC and hp-AETA.

Staphylococcus aureus = assay: Antibacterial susceptibility disc test (rings of inhibition); type: cell-based; details: disc on Mueller-Hinton plate, 18-24 hrs at 37° C.; polymers 100 μg per disc, control discs at given load; NI = No Inhibition
Method: (§1) Compounds were tested for antibacterial activity, as described in Ma et al. (2011), against pure cultures of Escherichia coli, Pseudomonas aeruginosa, Bacillus cereus, Proteus mirabilis/hauseri, and Staphylococcus aureus, supplied by Ward's Natural Science Ltd. (St. Catherines, Ontario, Canada). All cultures were maintained on Tryptic Soy agar. These cultures were then transferred using an inoculation loop to 10 mL of Tryptic soy broth, and grown at 37° C. for 24 hours. Triplicates of plate and broth cultures were made in case of error or contamination. Using a sterile swab, and aseptic techniques, the bacterial broth inocula were transferred to Mueller-Hinton plates and spread evenly, ensuring that the entire surface was inoculated. They were then left to dry for 3-5 minutes. The following control discs were used: Penicillin (10 μg), Tetracycline (30 μg), Chloramphenicol (30 μg), and Ampicillin (10 μg). Four antibiotic discs containing different compounds were placed equidistant from each other on a Mueller-Hinton plate. Each compound had three replicates per species. Plates were incubated for 18-24 hrs at 37° C., and then observed for rings of inhibition. If clear rings of inhibition were present, the diameter was measured twice using a caliper. […] Each polymer was applied to sterile filter paper discs as a solution (15 mg of compound in 3 mL of solvent). Each disc received 20 μL of solution, and was allowed to dry, giving a final concentration of 100 μg of compound per disc.

[2] = tested on: Proteus mirabilis/hauseri; assay: as above; type: cell-based; details: disc on Mueller-Hinton plate, 18-24 hrs at 37° C.; polymers 100 μg per disc, control discs at given load; NI = No Inhibition
Method: as §1

Pseudomonas aeruginosa = assay: as above; type: cell-based; details: disc on Mueller-Hinton plate, 18-24 hrs at 37° C.; polymers 100 μg per disc, control discs at given load; NI = No Inhibition
Method: as §1

Escherichia coli = assay: as above; type: cell-based; set-up: unit not given here; details: NI = No Inhibition; for diameter of ring of inhibition, E. coli (Table 5): all 10 μg; for diameter of ring of inhibition, E. coli: disc on Mueller-Hinton plate, 18-24 hrs at 37° C., polymers 100 μg per disc, control discs at given load
Method: as §1

Bacillus cereus = assay: as above; type: cell-based; details: disc on Mueller-Hinton plate, 18-24 hrs at 37° C.; polymers 100 μg per disc, control discs at given load; NI = No Inhibition
Method: as §1

Aspergillus fumigatus = assay: Antifungal susceptibility disc test (rings of inhibition); type: cell-based; details: disc on Sabouraud plate, 18-24 hrs at 35° C.; polymers 100 μg per disc, Amphotericin B 20 μg; NI = No Inhibition
Method: (§2) Each polymer was applied to sterile filter paper discs as a solution (15 mg of compound in 3 mL of solvent). Each disc received 20 μL of solution, and was allowed to dry, giving a final concentration of 100 μg of compound per disc. Adapted from Messer et al., (2007), this protocol was used to test novel compounds for antifungal properties against yeasts and fungi. Compounds were tested for antifungal activity against pure cultures of Saccharomyces cerevisiae, Candida albicans supplied by Ward's Natural Science Ltd. and Aspergillus niger and Aspergillus fumigatus supplied by […]. (Inverness Medical, Ottawa, Ontario, Canada). All cultures were maintained on Sabouraud agar. […] The cultures of A. niger and A. fumigatus were transferred, using an inoculation loop, to new Sabouraud agar and grown for 48 hrs. at 27° C., and 35° C. respectively, to cause sporulation. Triplicates of all the plates and broth cultures were made in case of error or contamination. Using a sterile swab, and aseptic techniques, the cell suspension of S. cerevisiae, and C. albicans were transferred to Sabouraud agar plates and spread evenly, ensuring that the entire surface was inoculated. They were then left to dry for 10 minutes. From the plates containing A. niger and A. fumigatus two small circles containing fungal growth of the A Niger or A Fumigatus fungi were cut from the agar plates, and using a glass/PTFE tissue homogenizer, were mixed and homogenized with 5 ml of sterile MilliQ water to create a suspension of fungal spores. Using a sterile swab, and aseptic techniques, the spore inocula of A. niger and A. fumigatus were transferred to Sabouraud agar plates and spread evenly, ensuring that the entire surface was inoculated. They were then left to dry for 10 minutes. Amphotericin B (20 μg) premade discs were used as a control. Three antibiotic discs containing different compounds were place equidistant apart on each Sabouraud plate. Each compound had three replicates per species. Plates containing S. cerevisiae, and C. albicans were incubated for 18-24 hrs at 37° C., A. niger for 48 hrs at room temperature, and A. fumigatus for 18-24 hrs at 35° C. […] If clear rings of inhibition were present, the diameter was measured twice using a caliper. Halos indicated partial inhibition of growth (Hicks et al., 2008).

Aspergillus niger = assay: as above; type: cell-based; details: disc on Sabouraud plate, 48 hrs at room temperature; polymers 100 μg per disc, Amphotericin B 20 μg; NI = No Inhibition
Method: as §2

Candida albicans = assay: as above; type: cell-based; details: disc on Sabouraud plate, 18-24 hrs at 37° C.; polymers 100 μg per disc, Amphotericin B 20 μg; NI = No Inhibition
Method: as §2

Saccharomyces cerevisiae = assay: as above; type: cell-based; details: disc on Sabouraud plate, 18-24 hrs at 37° C.; polymers 100 μg per disc, Amphotericin B 20 μg; NI = No Inhibition
Method: as §2

Compound | viscosity [1] [mPa·s] | diameter of ring of inhibition, S. aureus (Staphylococcus aureus) | diameter of ring of inhibition, P. hauseri [2] | diameter of ring of inhibition, P. aeruginosa (Pseudomonas aeruginosa) | diameter of ring of inhibition, E. coli (Table 5) (Escherichia coli) | diameter of ring of inhibition, E. coli (Escherichia coli) | diameter of ring of inhibition, B. cereus (Bacillus cereus) | diameter of ring of inhibition, A. fumigatus (Aspergillus fumigatus) | diameter of ring of inhibition, A. niger (Aspergillus niger) | diameter of ring of inhibition, C. albicans (Candida albicans) | diameter of ring of inhibition, S. cerevisiae (Saccharomyces cerevisiae)
Benzalkonium chloride [BAC] | 3.1 |  |  |  |  |  |  |  |  |  | 
Penicillin |  | 43.8 | 19 | 7.0 | 19.5 | 19.5 |  |  |  |  | 
CC1(C)S[C@@H]2[C@H](NC(=O)[C@H](N)c3ccccc3)C(=O)N2[C@H]1C(=O)O [Ampicillin] |  | 40.4 | 11 | 10.2 | 15.4 | 15.0 | 13.5 |  |  |  | 
CN(C)[C@@H]1C(O)=C(C(N)=O)C(=O)[C@@]2(O)C(O)=C3C(=O)c4c(O)cccc4[C@@](C)(O)[C@H]3C[C@@H]12 [Tetracycline] |  | 24.7 | 13.7 | 9.9 | 25.3 | 20.4 | 20.3 |  |  |  | 
C[C@@H]1[C@H](O)[C@@H](C)/C=C/C=C/C=C/C=C/C=C/C=C/C=C/[C@H](O[C@@H]2O[C@H](C)[C@@H](O)[C@H](N)[C@@H]2O)C[C@@H]2O[C@](O)(C[C@@H](O)C[C@@H](O)[C@H](O)CC[C@@H](O)C[C@@H](O)CC(=O)O[C@H]1C)C[C@H](O)[C@H]2C(=O)O [Amphotericin B] |  |  |  |  |  |  |  | 12.5 | 15.5 | 13.6 | 8.39
O=C(N[C@H](CO)[C@H](O)c1ccc([N+](=O)[O-])cc1)C(Cl)Cl [Chloramphenicol] |  | 24.1 | 14.4 | 21.5 | 17.4 | 19.4 | 26.3 |  |  |  | 

— patent publication US11497701B2, “Multi-functional anti-microbial polymers and compositions containing same” (priority 2015, dated 2022)
